In patent US20260092086A1, “ANTIMICROBIAL LASSO PEPTIDES” (priority 2022, published 2026):
Several values for one entry are separate records, joined by “and”; a condition that tells them apart may be missing. Equal entries are not always repeated. Entries after “also recorded” stand apart in the source; their conditions may differ. Where a SMILES comes first, the peptide text is derived from it.

Legend:
[1] = system: Enterobacter ludwigii MGH216; assay: Spot-on-lawn assay in M63 agar, clinical isolate; format: cell-based; settings: reliably susceptible in at least three biological replicates
Method: Cloacaenodin was evaluated against several common laboratory strains as well as commercially acquired strains using a spot-on-lawn assay.^45 Strains were streaked out onto LB agar plates and incubated overnight at their recommended temperatures. A single colony was then used to inoculate an overnight culture in 5 mL of LB broth. After shaking at 250 rpm at the recommended temperature for each strain, 50 μL of the overnight culture was used to inoculate 5 mL of LB broth (volume ratio 1:100). These cultures were grown for a few hours until they reached the exponential phase (OD600˜0.4-0.6) before being added to 10 mL of soft M63 agar at a final cell density of 10^7 CFUs/mL, or 10^8 CFUs total in 10 mL. The M63 soft agar was composed of 2 g/L of (NH4)2SO4 (EMD MilliporeSigma), 13.6 g/L of KH2PO4 (Fisher), 40 mg/L of each of the 20 common amino acids, 0.2% glucose (Sigma), 0.00005% w/v thiamine hydrochloride (Sigma), and 0.65% w/v bacteriological-grade agar (Apex Bioresearch). […] Upon solidification, 10 μL of purified cloacaenodin in water at two-fold dilutions were then spotted onto the agar and allowed to dry. The plates were incubated overnight at the strains' recommended temperatures and analyzed the next morning for activity. The MIC is defined as the last dilution where a spot was visible. […]

[2] = Stability of NMR sample kept at 4° C., LC-MS before and after acquisition; format: physicochemical; settings: 95:5 H2O:D2O
Method: The structure of cloacaenodin in water was determined using two-dimensional (2D) nuclear magnetic resonance (NMR) analysis, a technique that has been successfully used to show the threaded shape of lasso peptides.^51 The possibility of cloacaenodin unthreading during the NMR acquisition was addressed by keeping the sample at 4° C. throughout acquisition. […] As an additional control, one-dimensional (1D) NMR spectra were acquired in between each 2D NMR spectrum acquisition to ensure stability of the sample (FIG. 12).
NMR studies were performed at the Princeton University Department of Chemistry NMR Facilities using a Bruker Avance III HD 800 MHz NMR spectrometer. Purified cloacaenodin was prepared at a concentration of 6.7 mg/mL (2.6 mM) in 95:5 H2O:D2O. The NMR spectra were acquired at 4° C. to minimize any cloacaenodin unthreading. A ^1H-^1H TOCSY spectrum at a mixing time of 80 ms was acquired, as well as 1H-1H NOESY spectra at 150 ms and 300 ms. Water suppression was used in the collection of all NMR data. To verify that the lasso peptide was not undergoing unthreading, 1D 1H NMR data were collected in between each 2D NMR acquisition and analyzed to see that the 1D spectra stayed consistent. […]

[3] = target: T1, Thermolysin (Geobacillus stearothermophilus, UniProt P43133); assay: Protease digestion, thermolysin; format: in vitro ADME; settings: 50 μM peptide, 30° C., about 1 hour, LC-MS
T1 construct: purchased Sigma-Aldrich
T1 sequence (P43133 236-551): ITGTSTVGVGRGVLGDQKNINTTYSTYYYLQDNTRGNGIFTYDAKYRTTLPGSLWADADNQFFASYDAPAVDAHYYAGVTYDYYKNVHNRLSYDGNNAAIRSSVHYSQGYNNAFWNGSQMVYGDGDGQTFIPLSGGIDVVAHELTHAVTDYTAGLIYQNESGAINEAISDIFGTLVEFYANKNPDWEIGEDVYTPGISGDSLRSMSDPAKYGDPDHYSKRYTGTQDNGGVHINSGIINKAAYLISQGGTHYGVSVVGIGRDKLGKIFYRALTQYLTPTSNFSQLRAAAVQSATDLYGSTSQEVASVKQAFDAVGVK
Method: Thermolysin from Geobacillus stearothermophilus (Sigma-Aldrich) was first resuspended in 50 mM Tris, 0.5 mM CaCl2). The enzyme was then added to 50 μM peptide samples at a final concentration of about 0.04 mg/mL in a buffer of 50 mM Tris, 0.5 mM CaCl2), pH 8. The reactions were then allowed to incubate at 30° C. for about 1 hour before quenching with 1% formic acid. An aliquot was then injected onto LC-MS for analysis.

[4] = system: Escherichia coli XL-1 Blue; assay: Intracellular toxicity: IPTG-induced expression from plasmid lacking cloD; format: cell-based; settings: IPTG induction
Method: After characterizing the structure and proteolytic resistance of cloacaenodin, cloacaenodin's inhibition of bacterial growth was tested. As a preliminary test of antimicrobial activity, a version of the expression plasmid from which the cloD gene was removed was cloned, so that the lasso peptide could not be exported by the Escherichia coli upon isopropyl β-D-1-thiogalactopyranoside (IPTG)-induced expression.
Cloacaenodin variants were constructed using site-directed mutagenesis. Mutant precursor genes were amplified from the wild-type precursor in pAK2 using mutagenic primers. Following PCR amplification of the mutated precursor gene, the purified PCR product was digested and ligated into pAK2 with the EcoRI and HindIII restriction sites. For the pMP3 plasmid for deletion of the cloD gene, the D gene was first disrupted by digestion of pAK2 with BamHI and NcoI, which removed the entire cloD gene and the C-terminal portion of the cloC gene. The digested plasmid was then ligated with an insert that restored the C-terminal portion of the cloC gene. All mutants were sequence confirmed by Genewiz (now Azenta) before use.

[5] = system: B. subtilis 168; assay: Spot-on-lawn assay in M63 agar; format: cell-based, Bacillus subtilis; settings: purified cloacaenodin in water
Method: Cloacaenodin was evaluated against several common laboratory strains as well as commercially acquired strains using a spot-on-lawn assay.^45 Strains were streaked out onto LB agar plates and incubated overnight at their recommended temperatures. A single colony was then used to inoculate an overnight culture in 5 mL of LB broth. After shaking at 250 rpm at the recommended temperature for each strain, 50 μL of the overnight culture was used to inoculate 5 mL of LB broth (volume ratio 1:100). These cultures were grown for a few hours until they reached the exponential phase (OD600˜0.4-0.6) before being added to 10 mL of soft M63 agar at a final cell density of 10^7 CFUs/mL, or 10^8 CFUs total in 10 mL. The M63 soft agar was composed of 2 g/L of (NH4)2SO4 (EMD MilliporeSigma), 13.6 g/L of KH2PO4 (Fisher), 40 mg/L of each of the 20 common amino acids, 0.2% glucose (Sigma), 0.00005% w/v thiamine hydrochloride (Sigma), and 0.65% w/v bacteriological-grade agar (Apex Bioresearch). […] Upon solidification, 10 μL of purified cloacaenodin in water at two-fold dilutions were then spotted onto the agar and allowed to dry. The plates were incubated overnight at the strains' recommended temperatures and analyzed the next morning for activity. The MIC is defined as the last dilution where a spot was visible.

[6] = target: T2, α-chymotrypsin (Bos taurus, UniProt P00766, DEL14-15/DEL147-148); assay: Protease digestion, chymotrypsin; format: in vitro ADME, bovine; settings: 50 μM peptide, 25° C., about 1 hour, LC-MS
T2 construct: purchased Sigma-Aldrich; host or cells: bovine pancreas
Method: α-chymotrypsin from bovine pancreas (Sigma-Aldrich) was first resuspended in 1 mM HCl, 2 mM CaCl2). The enzyme was added to 50 μM peptide samples at a final enzyme concentration of about 0.04 mg/mL in a buffer of 100 mM tris(hydroxymethyl)aminomethane (Tris), 10 mM CaCl2, pH 8. The reactions were then allowed to incubate at 25° C. for about 1 hour before quenching with 1% formic acid, and an aliquot was injected onto LC-MS for analysis.

[7] = 18 μM in pure water, 37° C., 72 hours (3 days)
Method: A 200 μL sample of purified ˜18 μM cloacaenodin in water was incubated at 37° C. for 72 hours. 30 μL of the sample was injected on LC-MS at 24-hour increments.

[8] = listed as Threaded cloacaenodin
[9] = listed as threaded cloacaenodin

With `CC[C@H](C)[C@@H]1NC(=O)[C@H](CCCNC(=N)N)NC(=O)[C@H](CC(=O)O)NC(=O)[C@H](C(C)C)NC(=O)[C@H](CO)NC(=O)[C@H](Cc2c[nH]cn2)NC(=O)CNC(=O)CC[C@@H](C(=O)N[C@@H](Cc2ccc(O)cc2)C(=O)N[C@@H](Cc2ccccc2)C(=O)NCC(=O)N2CCC[C@H]2C(=O)N2CCC[C@H]2C(=O)NCC(=O)N[C@@H](CC(C)C)C(=O)N2CCC[C@H]2C(=O)NCC(=O)N2CCC[C@H]2C(=O)N[C@H](C(=O)N[C@@H](CC(C)C)C(=O)N[C@@H](Cc2ccccc2)C(=O)N[C@@H](Cc2ccc(O)cc2)C(=O)N[C@@H](CO)C(=O)O)C(C)C)NC(=O)[C@@H]2CCCN2C1=O` [cloacaenodin] (HELM PEPTIDE1{G.H.S.V.D.R.I.P.E.Y.F.G.P.P.G.L.P.G.P.V.L.F.Y.S}$PEPTIDE1,PEPTIDE1,1:R1-9:R3$$$V2.0; C-terminus assumed) the “strain susceptible to cloacaenodin” value [1] was “* MGH216”, the “threaded state after NMR acquisition” value [2] was “remained threaded” and the proteolysis by thermolysin [3, 8] was “resistant to thermolysin digestion”. The proteolysis by thermolysin [3, 9] was “remained resistant to proteolysis”, the “intracellular toxicity (growth of E. coli on IPTG without CloD)” value [4] was “colonies did not appear; also recorded: can no longer grow” and the “antimicrobial activity (zones of inhibition)” value [5] was “no observed activity”. The proteolysis by chymotrypsin [6, 8] was “resistant to chymotrypsin digestion”, the proteolysis by chymotrypsin [6, 9] was “remained resistant to proteolysis” and the “fraction remaining threaded (relative peak area on LC-MS)” value [7] was ~83% and > 80%.
